Consider 1 compound from patent publication US10220024B2, “Method of inhibiting cancer cell, method for detecting cancer cell, and system for detecting cancer cell” (CANON KABUSHIKI KAISHA, priority 2012, dated 2019).

Structures are written as SMILES. Where two headings read alike, the source gives them in different places.

Test [1] concerns K562 ALDH (+) fraction (cancer stem cells). Kind of test: Cancer stem-cell selective inhibitory action against chronic myelocytic leukemia cells, ALDH (+) fraction, CellTiter-Glo. The class given is cell-based. The settings on record: Homo sapiens, 24 hours; for activity at 0.12 µg/mL: 0.12 μg/ml; for activity at 0.24 µg/mL: 0.24 μg/ml; for activity at 0.35 µg/mL: 0.35 μg/ml; for activity at 0.47 µg/mL: 0.47 μg/ml; for activity at 0.59 µg/mL: 0.59 μg/ml. The method, then:
(§1) Human chronic myelocytic leukemia cells, K562, were pre-cultured in RPMI1640 medium containing 10% FBS at 37° C. in a 5% CO2 ambient. Then, a fraction containing 80% or more of cancer stem cells was extracted by use of ALDEFLUOR reagent (manufactured by VERITAS Corporation) and FACSAria flow cytometry (manufactured by Nippon Becton, Dickinson and Company). Subsequently, Compound (5) was added to the medium so as to obtain a final concentration of 10 μg/mL and cultured at 37° C. for 24 hours in a 5% CO2 ambient. The cultured cells were analyzed for viable cell count according to CellTiter-Glo Luminescent Cell Viability Assay (manufactured by Promega KK.). As a reference, the number of cells cultured in a medium containing a 0.1% dimethylsulfoxide solution (hereinafter, simply referred to as DMSO) in place of a medium containing Compound (1), in the aforementioned operation, was used as 0.1. Note that hereinafter, an ALDEFLUOR reagent positive fraction (deemed as cancer stem cells) is represented by ALDH (+), whereas an ALDEFLUOR reagent negative fraction (not deemed as cancer stem cells) is represented by ALDH (−), in some cases.
(§2) The same operation as in Experimental Example 12 was repeated except that Compound (5) in Experimental Example 12 was changed to the compounds shown in Table 4 and final concentrations shown in Table 4 were used and viable cell counts were separately analyzed. Note that the growth rate in Examples herein is a numerical value of the number of cells obtained after culture relative to the number of cells (regarded as 0.1) grown in a medium containing 0.1% DMSO.
(§3) The same operation as in Experimental Example 12 was repeated except that Compound (5) in Experimental Example 12 was changed to Imatinib (manufactured by NOVARTIS), which is a general anticancer drug, and comparative compounds shown in Table 4 and final concentrations shown in Table 4 were used and viable cell counts were separately analyzed.
(§4) The growth suppressive effect of cancer stem cells was evaluated based on the following criteria. Note that the growth rate in Examples herein is a numerical value relative to the number of cells (regarded as 0.1) grown in a medium containing 0.1% DMSO. • A: The value of ALDH (+) is less than 0.5 (growth suppressive effect against cancer stem cells is extremely high) • B: The value of ALDH (+) is 0.5 or more and less than 0.95 (growth suppressive effect against cancer stem cells is high) • C: The value of ALDH (+) is 0.95 or more (no growth suppressive effect against cancer stem cells)
(§5) Furthermore, superiority of cancer stem cells was evaluated by comparing cancer stem cells to cancer cells based on the following criteria. ALDH (+) represents cancer stem cells; whereas ALDH (−) represents general cancer cells. • A: The value of ALDH (+)/ALDH (−) is less than 0.8 (selective inhibitory effect against cancer stem cells is extremely high) • B: The value of ALDH (+)/ALDH (−) is 0.8 or more and less than 0.95 (selective inhibitory effect against cancer stem cells is high) • C: The value of ALDH (+)/ALDH (−) is 0.95 or more (no selective inhibitory effect against cancer stem cells)
Background: In ATP-based viability assays light output follows the ATP content of the culture.

Test [2] relates to K562 ALDH (−) fraction (general cancer cells). Kind of test: Cancer stem-cell selective inhibitory action against chronic myelocytic leukemia cells, ALDH (−) fraction, CellTiter-Glo. The class given is cell-based, Human. The method, then: as §1, §2, §3, §4, §5
Test [3] concerns K562-BFP human chronic myelocytic leukemia cells transplanted to zebra young fish. Kind of test: Cancer metastasis suppressive effect in metastatic foci of cancer cells transplanted to zebra young fish. The class given is in vivo. The following applies: metastatic foci (region within 300 to 450 μm from a transplanted tumor). The text has this: From cell strain K562-BFP, which is a strain of human chronic myelocytic leukemia cells having fluorescent protein TagBFP constantly expressed, a fraction (ALDH (+)) containing 80% or more of cancer stem cells was extracted by use of a cancer stem cell marker, ALDEFLUOR reagent (manufactured by VERITAS Corporation) and FACSAria flow cytometry (manufactured by Nippon Becton, Dickinson and Company). The ALDH (+) fraction and a ALDH (−) fraction of general cancer cells were transplanted separately to zebra young fish (MieKomachi lineage, 2 days after fertilization) and the fish were raised in a 32° C. environment. Furthermore, 24 hours after transplantation, Compound (16) was added to breeding water so as to obtain a final concentration of […] and fish were raised for two days in a 32° C. environment. Cells transplanted to the zebra young fish were observed under MZ16F fluorescent stereoscopic microscope (manufactured by Leica Microsystems) and a fluorescent image of the cells after 24 hours was photographed and then fluorescent intensity was quantified.
As a reference, the fluorescent intensity of cells, which were cultured in the same operation method as above in a medium containing a 0.1% DMSO solution in place of Compound (16), was used.
Fluorescent images were photographed in the same manner as in Experimental Example 29 except that Imatinib and Dasatinib were respectively used in place of the compound (16) in Experimental Example 29.
The inhibition rate herein was obtained according to the expression: 100×(1-F1/F0), where the fluorescent intensity of cells when a test substance was added is represented by F1, and the fluorescent intensity of cells when a reference substance (DMSO) was added is represented by F0.
The growth suppressive effect in metastatic foci (region within 300 to 450 μm from a transplanted tumor) of cancer stem cells was evaluated based on the following criteria. • A: Inhibition rate is 70 or more (growth suppressive effect against metastatic foci (region within 300 to 450 μm from a transplanted tumor) of cancer stem cells is extremely high) • B: Inhibition rate is 50 or more and less than 70 (growth suppressive effect against metastatic foci (region within 300 to 450 μm from a transplanted tumor) of cancer stem cells is high) • C: Inhibition rate is less than 50 (growth suppressive effect against metastatic foci (region within 300 to 450 μm from a transplanted tumor) of cancer stem cells is low)

Where [4] appears, read: read-out: Growth suppression evaluated.
Where [5] appears, read: relative to 0.1% DMSO, read-out: ALDH(+) (growth rate).

For `Cc1ccc(NC(=O)c2ccc(CN3CCN(C)CC3)cc2)cc1Nc1nccc(-c2cccnc2)n1` [Imatinib, reference compound], the activity at 0.12 µg/mL in test [1] (setting [4]) was 50 to 95%; in test [1] (setting [5]), 74%; in test [2] (Homo sapiens, 0.12 μg/ml, 24 hours, relative to 0.1% DMSO, read-out: ALDH(−) (growth rate)), 51%. Moreover, the activity at 0.24 µg/mL in test [1] (setting [4]) is 50 to 95%; in test [1] (setting [5]) it was 59%; in test [2] (Homo sapiens, 0.24 μg/ml, 24 hours, relative to 0.1% DMSO, read-out: ALDH(−) (growth rate)), 40%. The activity at 0.35 µg/mL in test [1] (setting [4]) was less than 50%; in test [1] (setting [5]) it was 48%; in test [2] (Homo sapiens, 0.35 μg/ml, 24 hours, relative to 0.1% DMSO, read-out: ALDH(−) (growth rate)), 32%. Besides, the activity at 0.47 µg/mL in test [1] (setting [4]) is less than 50%; in test [1] (setting [5]), 36%; in test [2] (Homo sapiens, 0.47 μg/ml, 24 hours, relative to 0.1% DMSO, read-out: ALDH(−) (growth rate)), 22%. Besides, the activity at 0.59 µg/mL is less than 50% in test [1] (setting [4]); 31% in test [1] (setting [5]); 11% in test [2] (Homo sapiens, 0.59 μg/ml, 24 hours, relative to 0.1% DMSO, read-out: ALDH(−) (growth rate)). Moreover, the “inhibitory effect against general cancer cells, in words” value in test [2] was “an inhibitory effect against general cancer cells was observed”. The “Evaluation (inhibition rate in metastatic foci)” value in test [3] (0.5 μm in breeding water) was “B (Inhibition rate is 50 or more and less than 70)”. In test [3] (final concentration of 0.5 μm in breeding water, 100×(1-F1/F0) versus DMSO), the Inhibition rate amounted to 60.
